Measurements reported in patent US6451844B1, “Use of menthyl-2 pyrrolidone-5-carboxylate as an insect repellent” (Quest International BV, priority 1998, dated 2002).

Test system: Aedes aegypti
Assay: Insect repellency test (mosquitoes attempting to bite treated warmed membrane targets)
Format: in vivo
Conditions: for % Repellency initially / % Repellency After 1 Hour: neat compound, 30 microlitres on membrane, 27° C.; for % Repellency initially: 10 minute period directly after application; for % Repellency After 1 Hour: 10 minute period one hour after application
Method: Four test chambers were prepared using 300 mm 200 gauge […] tubing. The synthetic plastics tubing was attached to oblong stainless steel frames (150 mm by 150 mm by 900 mm) using double-sided adhesive tape. 200 mm squares of cotton netting were used to cover the ends of the chambers and were secured using adhesive tape. Mosquitoes (naive insects of the species Aedes aegypti, 4 to 7 days old) were introduced into each chamber 8 and the chambers 8 were kept in a separate room until the test was ready to begin. The exhaust fan which vents the room in which the test was performed was switched on. Four targets 5 (only two shown) were prepared as follows: double layers of semi-porous membrane were stretched over the open ends of four open ended glassware bulbs (diameter of open end 43 mm) and secured using elastic bands. Testing was carried out at 27° C. The membranes were kept moist and warmed above the ambient temperature throughout the test by passing a supply of water ([…]) through the glassware bulbs, so as to contact the inner surface of the membranes. […] This was repeated with two other membranes and the fourth membrane was left untreated as a control. The chambers 8 containing the mosquitoes were positioned so that each chamber had one netting end pressed against one of the targets 5. Glass partitions in the form of a cross 6 were used to separate each target 5 and chamber end from its neighbour. […] The separation of the membranes ensured that air passing over a particular membrane would pass through only one test chamber 8. The filters 2, 3 were used to remove volatile elements from the air passing over the mosquitoes; filter 2 contained activated charcoal and filter 3 contained a molecular sieve (Union Carbide type 5A zeolite). The material in each filter 2, 3 was held within the cells of a 25 mm thick sheet of aluminium honeycomb sandwiched between two sheets of stainless steel mesh held in an aluminium frame. The filters 2,3 were bolted by their frames to the inside of an aluminium tunnel such that air passing along the tunnel passed through the filters 2, 3. […] An electronic timer was used to project the date and time onto the screen, and the video recorder 14 was used to record the data. The mosquitoes in the test chambers 8 were activated by introduction of a human breath stimulus upwind of the targets 5 and the number of insects attempting to bite each target 5 over the next ten minute period was recorded. After ten minutes, the recording was stopped and the test chambers 8 removed from their position immediately downwind of the targets 5. […] The numbers of mosquitoes attempting to bite each of the targets 5 was noted every 10 seconds throughout each ten minute recording period. The 60 readings were used to produce a figure for the mean number of insects biting each target 5 during the ten minute test periods. The reading obtained for the untreated target 5 was used to give a measure of the basic avidity of the mosquitoes used in the test and this was taken into account when analysing the results. […] The above lotions were tested for insect repellency using the method outlined in Example 1.

Compound | % Repellency initially [%] | % Repellency After 1 Hour [%] | insect repellent effectiveness (in words) (compared with hydrolysis product menthol, maintained for at least 1 hour after application to a substrate)
CC1CCC(C(C)C)C(O)C1 (stereo not shown) [Menthol, menthol] | 49 | 25 | 
CCN(CC)C(=O)c1cccc(C)c1 [DEET, N,N-diethyl-m-toluamide] | 93 | 75 | 
CC1CCC(C(C)C)C(OC(=O)C2CCC(=O)N2)C1 (stereo not shown) [Menthyl 2-pyrrolidone-5-carboxylate] | 80 | 59 | more effective insect repellent than its hydrolysis product, menthol
